Patent publication US20240297323A1, “BIOBASED AQUEOUS ORGANIC-BASED ELECTROLYTE IN AQUEOUS ORGANIC REDOX FLOW BATTERY” (KEMIWATT, priority 2021, published 2024)
Converted amounts (≈) assume the structure as drawn. Where two headings read alike, the source gives them in different places.

Legend:
[1] = redox-active molecules used in negolytes in ARFBs; cited from earlier work
[2] = Post-cycling analyses of the negolyte (cyclic voltammetry and 1H NMR before and after cycling); type: physicochemical; details: for chemical stability in the application: conclusion from cycling and post-cycling analyses; for degradation during the cycling test (1H NMR in D2O before/after): negolyte after cycling
Protocol: FIG. 3: Cyclic voltammetry (3rd cycle) of the negolyte (black line) before the cycling test and (grey line) after cycling test, recorded at a scan rate of 100 mV·s^−1.
FIG. 4: ^1H NMR spectra of the negolyte, recorded in D2O between 0 and 10 ppm, (black line) before and (grey line) after the cycling test.
A preliminary electrochemical test was performed on the negolyte before and after the cycling test (FIG. 3).
Further analyses were performed using ^1H NMR spectroscopy, see FIG. 4.
A preliminary electrochemical test was performed on the negolyte before and after thousands of cycles and a few months of cycling test (FIG. 7).
Further analyses were performed using ^1H NMR spectroscopy, see FIG. 8.
A preliminary electrochemical test was performed on the negolyte before and after the cycling test (FIG. 10) which lasted for more than 1000 cycles, or 25 days of constant cycling.
Further analyses were performed using ^1H NMR spectroscopy, see FIG. 11.

[3] = Electrochemical properties at diluted state (cyclic voltammetry, RDE linear sweep voltammetry); type: physicochemical; details: for k^0′O × 10^−2 apparent heterogeneous rate constant: Gileadi's equation, transfer coefficient 0.5; for E1/2 half-wave potential: LSV with RDE, 400 up to 1 000 RPM, pH 14; for DO × 10^−6 diffusion coefficient: Randles-Sevcik, scan rates 10 mV/s up to 20 V/s; for Peak-to-peak separation ΔEp at pH 14: pH 14 (KOH 1 M), 5.10^−3 M, scan rate 100 mV·s^−1, third cycle
Protocol: Cyclic voltammetry experiments were performed at a 100 mV/s scan rate for compounds A, B and B-M3CH in a solution at pH 14 (KOH 1 M).
The electrochemical experiments were conducted on an electrochemical working station (BioLogic Science Instruments VSP) at 25° C. using a three-electrodes electrochemical cell, where a Pt wire was employed at the counter electrode (CE), an Ag/AgCl/KCl saturated electrode immerged in a 1 M KOH solution protected from the cell by a porous frit glass served as the reference electrode (RE) and a rotating disc electrode (RDE) mounted with a glassy carbon (GC, 7.069 mm^2) disk was used as the working electrode (WE), respectively. The potential was reported relative to the normal hydrogen electrode (NHE), which was converted from the Ag/AgCl reference electrode (0.230 V versus NHE). The ohmic drop between the WE and RE is determined by current interrupt experiments and leads to a value close to 0.7069 Ω·cm^2. All cyclic voltammetry experiments were conducted by alleviating most of this resistance (85%) using the potentiostat manual ohmic drop compensation. Before each electrochemical measurement, the GC disk electrode was polished using SiC P4000 foil.
Each recorded cyclic voltammetry of the reduction and the oxidation process of a compound at a given scan rate is analyzed by measuring ip,a=anodic peak current; ip,c=cathodic peak current; v=scan rate; Ep,a=anodic peak potential; Ep,c=cathodic peak potential; ΔEp=Ep,a−Ep,c; the apparent standard redox potential E^0′=[…].
Linear sweep voltammetry (LSV) using the RDE at various rotation speed (400 up to 1 000 RPM) were performed to determine the averaged half-wave potential E1/2.
The oxidation (DO) and the reduction (DR) diffusion coefficients were calculated using Randles-Sevcik (RS) equation ip=0.4463.n^3/2.F^3/2.A.C.v^1/2.D^1/2.R^−1/2.T^−1/2=Cte.v^1/2.D^1/2, n=number of electrons exchanged during the redox process; F=faradaic number=96485 C·mol^−1; A=electrode active surface; C=redox active molecule concentration; R=gas constant=8.314 J·K^−1·mol^−1; T=bulk temperature=299 K. The experiments are conducted by cyclic voltammetry at various scan rates ranging from 10 mV/s up to 20 V/s.
A graphic of |ip,a| and |ip,c|=f(Cte.v^1/2) is plotted, if the redox process is reversible and diffusion controlled, the peak current should be proportional to the square root of the scan rate. The diffusion coefficients (oxidation and reduction) are then calculated by taking the square of the regression lines slopes. Diffusion coefficients (oxidation and reduction processes) are evaluated by plotting the peak current versus a constant multiplied by the square root of the scan rate. The plots regression line gives a straight line with perfect correlation coefficient (100%) confirming that the redox process is reversible and diffusion controlled. The square of each slope gives the associated coefficient diffusion in cm^2·s^−1.
The apparent heterogeneous rate constant during reduction (k^0′O) process was calculated using Gileadi's equation (C. Russel, W. Jaenicke, Electrochimica Acta, Vol 27, No. 12, 1745-1750, 1982) log k^0′=−0.48.α+0.52+log[(n.F.α.vc.D)/(2.303.R.T)]^1/2; vc is the critical scan rate, it is calculated by plotting the peak potentials versus the logarithm of the scan rates, and is more precise when a very wide range of scan rates is used, which is the case here (0.010 up to 20 V·s^−1), it is determined at the x-axis of the point of intersection of the regression lines drawn at low and high scan rates; a is the transfer coefficient that is supposed to be close to 0.5 for all presented compounds.
Peak-to-peak separation ΔEp values were determined from the third cycle of each cyclic voltammogram and are gathered in the following table 2.
The standard redox process reversibility evaluation is performed in diluted state, at 5 mM of concentration, at pH 14 buffered with 1 M of KOH. […]

[4] = Water solubility by shake-flask method in alkaline aqueous solution; type: physicochemical; details: for solubility: aqueous buffer, thermodynamic from solid
Protocol: The solubility of the compounds was evaluated in aqueous solution at various pH by shake-flask method. An aqueous solution (containing either KOH 1 M, NaOH 1 M, or a mixture of KOH 0.5 M and NaOH 0.5 M) is added over 100 mg of compound by 20 μL portions until complete solubilization. We obtain an approximate range of solubility values calculated as following:
Smax˜(m/M)/V; m=mass of evaluated compound(g);M=molar mass of evaluated compound(g·mol^−1);V=added volume(L).

[5] = aqueous KOH 1 M solution, aqueous KOH 1 M, shake-flask, approximate, read-out: solubility estimated, KOH (1M)
[6] = aqueous NaOH 1 M solution, aqueous NaOH 1 M, shake-flask, approximate, read-out: solubility estimated, NaOH (1M)
[7] = aqueous mixture of KOH 0.5 M and NaOH 0.5 M, mixture of KOH 0.5 M and NaOH 0.5 M, shake-flask, approximate, read-out: solubility estimated, KOH 0.5M + NaOH 0.5M
[8] = aqueous alkaline solution, aqueous alkaline environment, read-out: solubility in aqueous alkaline environment

| Compound | DO × 10^−6 [1] | k^0′O × 10^−2 [1] | degradation during the cycling test (1H NMR in D2O before/after) [2] | k^0′O × 10^−2 apparent heterogeneous rate constant [3] | E1/2 half-wave potential [3] | DO × 10^−6 diffusion coefficient [3] | Peak-to-peak separation ΔEp at pH 14 [3] | solubility [4, 5] | solubility [4, 6] | solubility [4, 7] | other results |
| --- | --- | --- | --- | --- | --- | --- | --- | --- | --- | --- | --- |
| O=C1c2ccc(S(=O)(=O)O)cc2C(=O)c2cc(S(=O)(=O)O)ccc21 [AQ-2,7-DS] | 3.8 × 10^−6 cm^2/s | 0.72 × 10^−2 cm/s | – | – | – | – | – | – | – | – | – |
| O=C1c2ccc(OCCCP(=O)(O)O)cc2C(=O)c2ccc(OCCCP(=O)(O)O)cc21 [DPPEAQ] | 1.37 × 10^−6 cm^2/s | – | – | – | – | – | – | – | – | – | – |
| Cc1cc(OCCCC(=O)O)cc2c1C(=O)c1c(O)cccc1C2=O [Compound B-M3CH, 4-((5-hydroxy-4-methyl-9,10-dioxo-9,10-dihydroanthracen-2-yl)oxy)butanoic acid] | – | – | does not undergo any degradation | 2.47 × 10^−2 cm/s | −0.49 V vs NHE | 4.58 × 10^−6 cm^2/s | 30 mV | 150 mM (≈ 51 mg/mL) | 150 mM (≈ 51 mg/mL) | ~430 mM | increase of redox signature current intensity after cycling ([2]; after more than 1000 cycles, 25 days, ascribed to osmosis concentration): about 30%; chemical stability in the application [2]: increased its stability; solubility ([4]; aqueous KOH 1 M or NaOH 1 M solution, KOH 1 M or NaOH 1 M, read-out: solubility in ionic environment containing one type of alkaline cation): ~150 mM (≈ 51 mg/mL); solubility estimated, KOH 0.5M + NaOH 0.5M ([4]; mixture of KOH 0.5 M and NaOH 0.5 M, shake-flask, approximate): 430 mM |
| O=C(O)CCCOc1ccc2c(c1)C(=O)c1ccc(OCCCC(=O)O)cc1C2=O [DBEAQ] | 1.58 × 10^−6 cm^2/s | 0.70 × 10^−2 cm/s | – | – | – | – | – | – | – | – | – |
| Cc1cc(O)cc2c1C(=O)c1c(O)cccc1C2=O [Compound B, 3,8-dihydroxy-1-methylanthracene-9,10-dione] | – | – | does not undergo any degradation | 0.80 × 10^−2 cm/s | −0.57 V vs NHE | 2.99 × 10^−6 cm^2/s | 40 mV | 580 mM (≈ 147 mg/mL) | 500 mM (≈ 127 mg/mL) | 630 mM | decrease of redox signature current intensity after cycling ([2]; after thousands of cycles and a few months, ascribed to osmosis dilution): 30-35%; solubility [4, 8]: > 300 mM |
| C[N+](C)(C)CCC[n+]1ccc(-c2cc[n+](CCC[N+](C)(C)C)cc2)cc1.[Cl-].[Cl-].[Cl-].[Cl-] [BTMAP-Vi] | 3.3 × 10^−6 cm^2/s | 2.2 × 10^−2 cm/s | – | – | – | – | – | – | – | – | – |
| O=C1c2ccc(O)cc2C(=O)c2ccc(O)cc21 [DHAQ] | 4.8 × 10^−6 cm^2/s | 0.70 × 10^−2 cm/s | – | – | – | – | – | – | – | – | – |
| Cc1cc2nc3c(=O)[nH]c(=O)nc-3n(C[C@H](O)[C@H](O)[C@H](O)COP(=O)([O-])O)c2cc1C.[Na+] [Flavine FMN-Na] | 1.3 × 10^−6 cm^2/s | 0.53 × 10^−2 cm/s | – | – | – | – | – | – | – | – | – |
| O=C1C=C(O)C(=O)C=C1O [DHBQ] | 3.66 × 10^−6 cm^2/s | 0.21 × 10^−2 cm/s | – | – | – | – | – | – | – | – | – |
| Cc1c(C(=O)O)c(O)cc2c1C(=O)c1c(O)cccc1C2=O [Compound A] | – | – | degraded into multiple compounds | 0.78 × 10^−2 cm/s | −0.59 V vs NHE | 3.65 × 10^−6 cm^2/s | 56 mV | 480 mM (≈ 143 mg/mL) | 320 mM (≈ 95.4 mg/mL) | 490 mM | oxidation not originally present in the negolyte ([2]; after cycling): −0.57 V vs Ag/AgCl; chemical stability in the application [2]: low chemical stability; solubility [4, 8]: > 300 mM |
